Measurements published in patent US10363245B2, “Methods for treating CNS lesions” (THE BOARD OF REGENTS OF THE UNIVERSITY OF TEXAS SYSTEM, priority 2017, dated 2019).

Assays:
[1] = test system: healthy controls; conditions: historical reports; cited from earlier work
[2] = test system: MS patients; test: Stage 1A clinical study: single 1000 mg IV ACZ bolus, cerebral blood flow by pCASL MRI
[3] = test system: MS patients; test: Stage 1B dose-escalation study: twice daily oral ACZ, cerebral blood flow by pCASL MRI, DTI and T2 relaxometry
[4] = Subj 001, oral 1000 mg BID for 2 weeks, versus baseline

CC(=O)Nc1nnc(S(N)(=O)=O)s1 [ACZ, acetazolamide]
time for cerebral blood flow (CBF) to return near baseline [1]: ≤ 60 min
time for global CBF to return near baseline ([2]; after IV ACZ, MS patients): 120 min
change in global cerebral perfusion (pCASL) ([2]; following IV ACZ): Rapid increases
duration of increases in CBF above baseline ([2]; single 1000 mg IV bolus, regardless of region): up to 180 minutes
tolerability of single IV bolus ([2]; single bolus of IV ACZ, five MS patients): generally well tolerated without serious AEs
CBF in the region with the larger T2 to T1 mismatch (qualitative pCASL) [3, 4]: increased
qualitative DTI and T2 relaxometry measures [3, 4]: changed little
potential for tachyphylaxis ([3]; oral, 1000 mg twice daily): limited if any potential for tachyphylaxis
sustained increases in global CBF ([3]; oral, 1000 mg twice daily): 10-25%
tolerability of oral ACZ ([3]; oral, 1000 mg twice daily): well tolerated, with minimal reported adverse events
